Experimental findings from patent US11771694B2, “Arylamide compounds for treatment and prevention of viral infections” (priority 2020, dated 2023) are described below.

In brackets after ≈: the same amount, converted by molar mass. Read-outs that look alike come from different tables or passages of the source. Some results are limits rather than exact numbers.

Assay [1] concerns dextran sulfate sodium (DSS) induced colitis. Kind of assay: Mouse DSS colitis model. In kind it is in vivo, mice. The following applies: mouse, in vivo.
Another assay deals with Klebsiella oxtoca. The assay can be described thus: Broth microdilution MIC. It counts as cell-based. On the technique in general: Broth dilution looks for growth in wells or tubes with falling amounts of substance.
Another assay relates to Proteus vulgaris. The assay can be described thus: Broth microdilution MIC. In kind it is cell-based.
A further assay has as its system Providencia stuartii. Kind of assay: Broth microdilution MIC. In kind it is cell-based.
The next assay has as its system Staph. epidermidis. Kind of assay: Broth microdilution MIC. In kind it is cell-based. The following applies: Staphylococcus epidermidis.
The subject of assay [2] is stationary phase cultures of MSSA and MRSA. The assay can be described thus: Time-kill against stationary phase cultures of MSSA and MRSA. The following applies: up to 10× the MIC; data not shown. In kind it is cell-based, Staph. aureus.
Another assay has as its system Morganella morganii. The assay can be described thus: Broth microdilution MIC. In kind it is cell-based.
In a further assay the test system is Citrobacter fruendi. The assay can be described thus: Broth microdilution MIC. In kind it is cell-based.
The next assay concerns Enterobacter cloacae. Kind of assay: Broth microdilution MIC. In kind it is cell-based.
The next assay relates to Strept. pneumoniae. The assay can be described thus: Broth microdilution MIC. In kind it is cell-based. The following applies: Streptococcus pneumoniae.
A further assay has as its system Staph. aureus (MRSA). The assay can be described thus: Broth microdilution MIC. In kind it is cell-based. As to conditions: Staphylococcus aureus.
For a further assay, the system named is Pseud. aeruginosa. The assay can be described thus: Broth microdilution MIC. It counts as cell-based. The following applies: Pseudomonas aeruginosa.
A further assay deals with Klebsiella pneumoniae. Kind of assay: Broth microdilution MIC. It counts as cell-based.
The subject of a further assay is Strept. viridians. The assay can be described thus: Broth microdilution MIC. It counts as cell-based.
A further assay has as its system Escherichia coli. The assay can be described thus: Broth microdilution MIC. In kind it is cell-based.
A further assay deals with Staph. saprophyticus. The assay can be described thus: Broth microdilution MIC. It counts as cell-based. The following applies: Staphylococcus saprophyticus.
For another assay, the system named is Citrobacter koseri. Kind of assay: Broth microdilution MIC. It counts as cell-based.
Another assay relates to Strept. pyogenes. The assay can be described thus: Broth microdilution MIC. In kind it is cell-based. The following applies: Streptococcus pyogenes.
In another assay the test system is Entero. faecalis. The assay can be described thus: Broth microdilution MIC. In kind it is cell-based. As to conditions: Enterococcus faecalis.
Another assay concerns Staph. spp. coagulase-. The assay can be described thus: Broth microdilution MIC. It counts as cell-based.
The next assay has as its system Proteus mirabilis. Kind of assay: Broth microdilution MIC. It counts as cell-based.
Another assay concerns Entero. faecium (VRE). The assay can be described thus: Broth microdilution MIC. It counts as cell-based. The following applies: Enterococcus faecium.
The subject of a further assay is Acinetobacter spp. The assay can be described thus: Broth microdilution MIC. The following applies: 2-3 isolates/organism. It counts as cell-based.
In another assay the test system is Serratia marcescens. Kind of assay: Broth microdilution MIC. In kind it is cell-based.
Assay [3] relates to Stenotrophomonas maltophilia. Kind of assay: Broth microdilution MIC. It counts as cell-based.
Another assay deals with Strept. agalactiae. The assay can be described thus: Broth microdilution MIC. It counts as cell-based. As to conditions: Streptococcus agalactiae.
A further assay relates to Haemophilus influenzae. The assay can be described thus: Broth microdilution MIC. It counts as cell-based.
The subject of the next assay is SARS-CoV-2. In kind it is cell-based. As to conditions: Calu-3; MOI 0.05; 24 hpi.
[4] abbreviates: 2-3 isolates/organism, read-out: MIC.

For the compound `Nc1ccc(O)c(C(=O)O)c1` [5-ASA, reference compound], in assay [1], the “mean reduction in IL-1β in distal colon tissue” value was found to be 33% and the “mean reduction in IL-6 in distal colon tissue” value is 86%.
In the case of `CC(C)(O/N=C(\C(=O)N[C@@H]1C(=O)N2C(C(=O)[O-])=C(C[n+]3ccccc3)CS[C@H]12)c1csc(N)n1)C(=O)O` [Ceftazidime], the MIC in the assay on Klebsiella oxtoca (Klebsiella) is 0.06 to 0.12 µg/mL (≈ 0.11 to 0.22 µM); against Proteus vulgaris, 0.12 µg/mL (≈ 0.22 µM); in the assay on Providencia stuartii, 0.12 to 64 µg/mL (≈ 0.22 to 117 µM); in the assay on Staph. epidermidis, 16 to 32 µg/mL (≈ 29.3 to 58.5 µM).
Regarding `CCCCCCCCCC(=O)N[C@@H](Cc1c[nH]c2ccccc12)C(=O)N[C@H](CC(N)=O)C(=O)N[C@@H](CC(=O)O)C(=O)N[C@@H]1C(=O)NCC(=O)N[C@@H](CCCN)C(=O)N[C@@H](CC(=O)O)C(=O)N[C@H](C)C(=O)N[C@@H](CC(=O)O)C(=O)NCC(=O)N[C@H](CO)C(=O)N[C@@H]([C@H](C)CC(=O)O)C(=O)N[C@@H](CC(=O)c2ccccc2N)C(=O)O[C@@H]1C` [Daptomycin, reference compound], the “antimicrobial activity against stationary phase cultures” value in [2] was “little antimicrobial activity”.
As for `CC(=O)NC[C@H]1CN(c2ccc(N3CCOCC3)c(F)c2)C(=O)O1` [Linezolid], the MIC is more than 16 µg/mL in the assay on Klebsiella oxtoca (Klebsiella oxtoca, 2-3 isolates/organism, read-out: MIC); more than 16 µg/mL with Morganella morganii (setting [4]); more than 16 µg/mL in the assay on Citrobacter fruendi (Citrobacter fruendi, 2-3 isolates/organism, read-out: MIC); more than 16 µg/mL in the assay on Proteus vulgaris (setting [4]); more than 16 µg/mL in the assay with Enterobacter cloacae (setting [4]); 1 µg/mL (≈ 2.96 µM) in the assay with Strept. pneumoniae (Strept. pneumoniae, 2-3 isolates/organism, read-out: MIC). Also, the MIC is 1 to 2 µg/mL (≈ 2.96 to 5.93 µM) in the assay with Staph. aureus (MRSA) (Staph. aureus (MRSA), 2-3 isolates/organism, read-out: MIC); more than 16 µg/mL in the assay with Providencia stuartii (setting [4]); more than 16 µg/mL in the assay with Pseud. aeruginosa (Pseud. aeruginosa, 2-3 isolates/organism, read-out: MIC); more than 16 µg/mL with Klebsiella pneumoniae (setting [4]); 1 µg/mL (≈ 2.96 µM) in the assay with Strept. viridians (Strept. viridians, 2-3 isolates/organism, read-out: MIC); more than 16 µg/mL in the assay on Escherichia coli (setting [4]). The MIC with Staph. saprophyticus (Staph. saprophyticus, 2-3 isolates/organism, read-out: MIC) was 1 to 2 µg/mL (≈ 2.96 to 5.93 µM); in the assay with Citrobacter koseri (setting [4]), more than 16 µg/mL; with Staph. epidermidis (Staph. epidermidis, 2-3 isolates/organism, read-out: MIC), 0.5 to 1 µg/mL (≈ 1.48 to 2.96 µM); in the assay with Strept. pyogenes (Strept. pyogenes, 2-3 isolates/organism, read-out: MIC), 1 µg/mL (≈ 2.96 µM); in the assay on Entero. faecalis (Entero. faecalis, 2-3 isolates/organism, read-out: MIC) it was 1 to 2 µg/mL (≈ 2.96 to 5.93 µM); with Staph. spp. coagulase- (Staph. spp. coagulase-, 2-3 isolates/organism, read-out: MIC), 1 µg/mL (≈ 2.96 µM). For the same compound, the MIC in the assay on Proteus mirabilis (setting [4]) is more than 16 µg/mL; in the assay with Entero. faecium (VRE) (Entero. faecium (VRE), 2-3 isolates/organism, read-out: MIC), 1 to 2 µg/mL (≈ 2.96 to 5.93 µM); in the assay with Acinetobacter spp. it was more than 16 µg/mL; in the assay with Serratia marcescens (setting [4]), more than 16 µg/mL; in assay [3] (setting [4]) it was more than 16 µg/mL; in the assay on Strept. agalactiae (Strept. agalactiae, 2-3 isolates/organism, read-out: MIC), 1 µg/mL (≈ 2.96 µM).
`CN[C@H](CC(C)C)C(=O)N[C@H]1C(=O)N[C@@H](CC(N)=O)C(=O)N[C@H]2C(=O)N[C@H]3C(=O)N[C@H](C(=O)N[C@H](C(=O)O)c4cc(O)cc(O)c4-c4cc3ccc4O)[C@H](O)c3ccc(c(Cl)c3)Oc3cc2cc(c3O[C@@H]2O[C@H](CO)[C@@H](O)[C@H](O)[C@H]2O[C@H]2C[C@](C)(N)[C@H](O)[C@H](C)O2)Oc2ccc(cc2Cl)[C@H]1O` [Vancomycin]: the MIC was more than 128 µg/mL against Klebsiella oxtoca (Klebsiella); more than 128 µg/mL against Morganella morganii; more than 128 µg/mL against Citrobacter fruendi (Citrobacter); more than 128 µg/mL against Proteus vulgaris; more than 128 µg/mL in the assay on Enterobacter cloacae; 0.5 µg/mL (≈ 0.345 µM) with Strept. pneumoniae. Further, the MIC with Staph. aureus (MRSA) (MRSA) was 0.5 to 1 µg/mL (≈ 0.345 to 0.69 µM); with Providencia stuartii, more than 128 µg/mL; against Haemophilus influenzae, 128 µg/mL (≈ 88.3 µM); against Pseud. aeruginosa, more than 128 µg/mL; in the assay with Klebsiella pneumoniae, more than 128 µg/mL; against Strept. viridians, 0.5 to 1 µg/mL (≈ 0.345 to 0.69 µM). Moreover, the MIC in the assay with Escherichia coli is more than 128 µg/mL; in the assay with Staph. saprophyticus, 1 to 2 µg/mL (≈ 0.69 to 1.38 µM); with Citrobacter koseri it was more than 128 µg/mL; in the assay with Staph. epidermidis, 2 µg/mL (≈ 1.38 µM); with Strept. pyogenes, 0.5 µg/mL (≈ 0.345 µM); against Entero. faecalis, 1 µg/mL (≈ 0.69 µM). For the same compound, the MIC is 1 to 2 µg/mL (≈ 0.69 to 1.38 µM) against Staph. spp. coagulase-; more than 128 µg/mL in the assay with Proteus mirabilis; more than 128 µg/mL in the assay on Entero. faecium (VRE) (VRE); more than 128 µg/mL against Serratia marcescens; 32 to 128 µg/mL (≈ 22.1 to 88.3 µM) in assay [3]; 0.5 µg/mL (≈ 0.345 µM) with Strept. agalactiae.
Turning to `NC(=O)c1nc(F)c[nH]c1=O` [favipiravir, reference compound], in the assay with SARS-CoV-2, the “inhibition of infectious titer, each drug alone” value is given as not above 80%.
